US20250213586A1, “STAT6 INHIBITORS AND USES THEREOF” (Kymera Therapeutics, Inc., priority 2024, published 2025)

Tests used:
[1] = molecular target: T1, biotinylated truncated STAT6 (123-632)-avi (Homo sapiens, UniProt P42226); assay: biochemical
T1 sequence (P42226 123-632 limits assumed): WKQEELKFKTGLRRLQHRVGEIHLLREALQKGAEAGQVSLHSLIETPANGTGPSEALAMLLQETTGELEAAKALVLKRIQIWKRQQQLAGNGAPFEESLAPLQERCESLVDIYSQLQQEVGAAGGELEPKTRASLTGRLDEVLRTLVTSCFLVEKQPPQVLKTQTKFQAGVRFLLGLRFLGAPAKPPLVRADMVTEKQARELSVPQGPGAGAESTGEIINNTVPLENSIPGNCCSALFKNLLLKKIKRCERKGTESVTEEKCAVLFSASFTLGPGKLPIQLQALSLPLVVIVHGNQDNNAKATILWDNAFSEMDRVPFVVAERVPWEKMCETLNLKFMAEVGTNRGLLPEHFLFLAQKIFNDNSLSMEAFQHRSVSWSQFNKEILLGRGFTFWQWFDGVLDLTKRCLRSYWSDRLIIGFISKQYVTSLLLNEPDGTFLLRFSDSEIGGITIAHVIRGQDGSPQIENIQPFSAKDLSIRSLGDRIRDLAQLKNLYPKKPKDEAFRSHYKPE

STAT6 [2] = molecular target: T2, STAT6 (Homo sapiens, UniProt P42226); assay: Phosphorylated STAT6 (pSTAT6) flow cytometry assay in human PBMC, IL-4 stimulated; type: cell-based; set-up: endogenous in cells; host or cells: human PBMC (CD19+ B cells), IL-4 stimulated; conditions: 1 hour compound, 1 ng/ml IL-4 15 minutes, pSTAT6 in CD19+ B cells, read-out: STAT6 IL4 pSTAT6 assay in PBMC: Average IC50
T2 sequence (P42226 1-847): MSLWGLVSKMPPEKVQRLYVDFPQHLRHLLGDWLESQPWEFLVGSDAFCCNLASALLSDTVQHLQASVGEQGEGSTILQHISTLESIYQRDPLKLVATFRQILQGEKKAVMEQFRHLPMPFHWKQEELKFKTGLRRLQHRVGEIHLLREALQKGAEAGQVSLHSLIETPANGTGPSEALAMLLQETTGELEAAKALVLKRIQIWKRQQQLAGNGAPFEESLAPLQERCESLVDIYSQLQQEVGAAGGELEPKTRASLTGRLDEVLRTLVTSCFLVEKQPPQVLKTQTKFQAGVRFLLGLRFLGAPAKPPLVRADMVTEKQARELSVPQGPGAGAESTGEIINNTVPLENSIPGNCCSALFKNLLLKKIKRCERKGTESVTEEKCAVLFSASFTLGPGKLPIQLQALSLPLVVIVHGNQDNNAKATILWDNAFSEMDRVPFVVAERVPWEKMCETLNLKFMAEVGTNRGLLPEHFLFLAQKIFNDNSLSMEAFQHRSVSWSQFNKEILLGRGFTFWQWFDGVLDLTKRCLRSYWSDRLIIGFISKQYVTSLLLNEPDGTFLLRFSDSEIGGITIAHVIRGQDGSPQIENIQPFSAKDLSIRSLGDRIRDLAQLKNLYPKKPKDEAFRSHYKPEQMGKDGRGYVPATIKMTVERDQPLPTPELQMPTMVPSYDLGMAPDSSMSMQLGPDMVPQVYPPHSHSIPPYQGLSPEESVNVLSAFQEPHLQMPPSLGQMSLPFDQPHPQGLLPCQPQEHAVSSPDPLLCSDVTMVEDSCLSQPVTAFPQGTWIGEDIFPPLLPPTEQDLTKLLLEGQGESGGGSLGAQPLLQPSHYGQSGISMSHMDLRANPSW
Experimental: Example 2. Phosphorylated STAT6 (pSTAT6) Flow Cytometry Assay in Human PBMC
Phosphorylation of STAT6 in human PBMC was quantitatively measured using flow cytometry technology. Human PBMC were seeded in 96-well plates with a density of 0.3 to 0.5 million cells per well in 100 μl fresh media. Compounds were then added to the assay plates with a final top concentration of up to […] in a 1:3 dilution series with total of 9 doses. The assay plates were incubated for 1 hour at 37° C. under 5% CO2. The cells were then stimulated with 1 ng/ml of IL-4 (R&D Systems, Cat #6507-IL) for 15 minutes, followed by fixation for 30 minutes at 4° C. Cells were spun down at 350 g for 5 minutes. The supernatant was removed and cells were washed once with FACS buffer. Cells were permeabilized with 90% MeOH/H2O for 30 minutes at 4° C., followed by one wash with FACS buffer. Non-specific binding were blocked with human Fc for 1 hour at 4° C., followed by one wash with FACS buffer. AF488 conjugated pSTAT6 antibody (BD Biosciences, Cat #612600, 1:100 dilution) and PE conjugated CD19 antibody (BD Biosciences, Cat #341103, 1:50 dilution) diluted in 100 μl FACS buffer was added to each well with overnight incubation at 4° C. Cells were then washed once with FACS buffer and resuspended in 200 μl of FACS buffer for flow cytometry to quantify pSTAT6 in CD19+ B cells. The data was analyzed by GraphPad Prism and the dose dependent pSTAT6 inhibition was fit using the four-parameter inhibitor vs. response nonlinear regression.

STAT6 [3] = molecular target: T2, STAT6; assay: Phosphorylated STAT6 (pSTAT6) flow cytometry assay in human A549 cells; type: cell-based; set-up: endogenous in cells; conditions: read-out: STAT6 IL4 pSTAT6 assay in A549 cells: Average IC50
Description: Example 3. Phosphorylated STAT6 (pSTAT6) Flow Cytometry Assay in Human A549 Cells
Phosphorylation of STAT6 in human A549 cells was quantitatively measured using flow cytometry technology.

Compound: Cn1cccc(-c2ccc([C@H]3CCCN(C(=O)CCn4ccnn4)C3)cc2F)c1=O (single isomer, unassigned) [Compound I-7]
- IC50 [1]: 10 to 100 µM
- IC50 (STAT6 [2]): > 100 µM

Compound: Cn1cccc(-c2ccc([C@@H]3CCCN(C(=O)CCn4ccnn4)C3)cc2F)c1=O (single isomer, unassigned) [Compound I-320]
- IC50 [1]: 10 to 100 µM
- IC50 (STAT6 [2]): > 100 µM

Compound: O=C(CCn1ccnn1)N1CCC[C@@H](c2ccc(-n3ccccc3=O)c(F)c2)C1 (single isomer, unassigned) [Compound I-1293]
- IC50 [1]: 10 to 100 µM

Compound: O=C(CCn1ccnn1)N1CCC[C@H](c2ccc(-n3ccccc3=O)c(F)c2)C1 (single isomer, unassigned) [Compound I-1294]
- IC50 [1]: 10 to 100 µM

Compound: CN1CCN(c2ccc(C3=CCCN(C(=O)CCn4ccnn4)C3)cc2Cl)CC1=O [Compound I-6]
- IC50 [1]: 10 to 100 µM
- IC50 (STAT6 [2]): 10 to 100 µM

Compound: CN(CC1CCN(c2ccc(-n3ccccc3=O)cc2F)CC1)C(Cc1cccnn1)c1ccc(CO)cc1 (stereo not drawn) [Compound I-121]
- IC50 [1]: > 100 µM
- IC50 (STAT6 [2]): > 100 µM

Compound: Cc1cscc1-c1cc(CO)ccc1C(=O)N(C)CC1CCN(c2ccc(-n3ccccc3=O)cc2F)CC1 [Compound I-131]
- IC50 [1]: 10 to 100 µM
- IC50 (STAT6 [2]): > 100 µM

Compound: CN(CC1CCN(c2ccc(-n3ccccc3=O)cc2F)CC1)C(=O)c1ccc(CO)cc1-c1ccsc1 [Compound I-164]
- IC50 [1]: 1 to 10 µM
- IC50 (STAT6 [2]): > 100 µM

Compound: CN(CC1CCN(c2ccc(-n3ccccc3=O)cc2)CC1)C(=O)c1ccc(CO)cc1 [Compound I-183]
- IC50 [1]: 10 to 100 µM
- IC50 (STAT6 [2]): > 100 µM

Compound: CN(C)C(=O)c1ccc(C2=CCCN(C(=O)CCn3ccnn3)C2)cc1C(N)=O [Compound I-211]
- IC50 [1]: 10 to 100 µM
- IC50 (STAT6 [2]): > 100 µM

Compound: CN(C)C(=O)c1ccc(C2=CCCN(C(=O)CCn3ccnn3)C2)cc1O [Compound I-218]
- IC50 [1]: 10 to 100 µM
- IC50 (STAT6 [2]): > 100 µM

Compound: CN(C)C(=O)c1ccc(C2=CCCN(C(=O)CC3CNc4ccccc4O3)C2)c(C#N)c1 (stereo not drawn) [Compound I-223]
- IC50 [1]: 10 to 100 µM
- IC50 (STAT6 [2]): > 100 µM

Compound: CN(C)C(=O)c1ccc(C2=CCCN(C(=O)CCn3ccnn3)C2)cc1C#N [Compound I-230]
- IC50 [1]: > 100 µM
- IC50 (STAT6 [2]): > 100 µM

Compound: CN(C)C(=O)c1ccc(N2CCC(CN(C)C(=O)c3ccc(CO)cc3)CC2)c(F)c1 [Compound I-238]
- IC50 [1]: 10 to 100 µM
- IC50 (STAT6 [2]): > 100 µM

Compound: CN(C)C(=O)c1ccc2ccc(C3=CCCN(C(=O)CCn4ccnn4)C3)cc2c1 [Compound I-242]
- IC50 [1]: 10 to 100 µM
- IC50 (STAT6 [2]): > 100 µM

Compound: COC(=O)COc1cc(C2=CCCN(C(=O)CCn3ccnn3)C2)ccc1C(=O)N(C)C [Compound I-250]
- IC50 [1]: 10 to 100 µM
- IC50 (STAT6 [2]): > 100 µM

Compound: CN(C)C(=O)c1ccc(C2=CCCN(C(=O)CCn3ccnn3)C2)c(O)c1 [Compound I-253]
- IC50 [1]: 1 to 10 µM
- IC50 (STAT6 [2]): > 100 µM

Compound: CN(C)C(=O)c1cc2cc(NC(=O)CCCn3ccnn3)ccc2o1 [Compound I-258]
- IC50 [1]: 10 to 100 µM
- IC50 (STAT6 [2]): > 100 µM

Compound: COc1cc(C(=O)N(C)C)ccc1C1=CCCN(C(=O)CCn2ccnn2)C1 [Compound I-260]
- IC50 [1]: 1 to 10 µM
- IC50 (STAT6 [2]): > 100 µM

Compound: CN(C)C(=O)c1cc2cc(NC(=O)CCn3ccnn3)ccc2o1 [Compound I-262]
- IC50 [1]: 10 to 100 µM
- IC50 (STAT6 [2]): > 100 µM

Compound: CN(C)C(=O)c1ccc(C2=CCCN(C(=O)CCn3ccnn3)C2)cc1 [Compound I-288]
- IC50 [1]: 1 to 10 µM
- IC50 (STAT6 [2]): > 100 µM

Compound: CN(C)C(=O)c1cc2cc(C3CCN(C(=O)CCn4ccnn4)C3)ccc2o1 (stereo not drawn) [Compound I-303]
- IC50 [1]: 10 to 100 µM
- IC50 (STAT6 [2]): > 100 µM

Compound: COc1ccccc1-c1cc(Cc2ccccn2)c(F)c(C2=CCCN(C(=O)CCn3ccnn3)C2)c1 [Compound I-1102]
- IC50 (STAT6 [3]): 100 to 1000 nM
- IC50 [1]: 0.1 to 1 µM

Compound: CCc1ccc(-c2cc(C(=O)N3Cc4cnn(CC)c4C3)cc3cc(-c4cccc(C(=O)O)c4C)n(CC4CC4)c23)c(C)n1 [Compound I-1240]
- IC50 [1]: 1 to 10 µM

Compound: CCc1ccc(-c2cc(C(=O)N3Cc4cnn(CC)c4C3)cc3cc(-c4cc(C(=O)O)ccc4C)n(CC4CC4)c23)c(C)n1 [Compound I-1246]
- IC50 [1]: 1 to 10 µM

Compound: CNC(=O)c1ccc2c(c1)nc(-c1nc3ccc(F)cc3[nH]1)n2Cc1ccc(CN2CCOCC2)o1 [Compound I-1271]
- IC50 [1]: 10 to 100 µM

Compound: CNC(=O)c1ccc2c(c1)nc(-c1cccn1C)n2-c1ccccc1OC(F)F [Compound I-1272]
- IC50 [1]: 10 to 100 µM

Compound: CN(CC1CCN(c2ccc(-n3ccccc3=O)cc2F)CC1)C(=O)c1ccc(OC(F)F)cc1 [Compound I-1273]
- IC50 [1]: 10 to 100 µM

Compound: CN(C)C(=O)c1cnc(-c2ccc(NC(=O)CCn3ccnn3)cc2)[nH]1 [Compound I-1295]
- IC50 [1]: 10 to 100 µM

Compound: COc1ccccc1-c1cc(-n2ccccc2=O)cc(F)c1N1CCC(CN(C)C(=O)c2ccc(CO)cc2)CC1 [Compound I-1296]
- IC50 [1]: 10 to 100 µM

Compound: CN(C)C(=O)c1cc2c([nH]1)CN(C1CCCN(C(=O)CCn3ccnn3)C1)CC2 (stereo not drawn) [Compound I-1297]
- IC50 [1]: 10 to 100 µM

Compound: CN(C)C(=O)c1ccc(C2=CCCN(C(=O)CC3Oc4ccccc4NC3=O)C2)c(OC(F)(F)F)c1 (stereo not drawn) [Compound I-1298]
- IC50 [1]: 10 to 100 µM

Compound: CN(C)C(=O)c1cc2ccc(-c3cnc(CC(=O)Nc4cccc(C(N)=O)c4)s3)c(F)c2[nH]1 [Compound I-1323]
- IC50 [1]: 0.1 to 1 µM

Compound: CN(C)C(=O)c1cc2ccc(C3CCCCN(C(=O)Nc4cccc(C(N)=O)c4)C3)c(F)c2[nH]1 (stereo not drawn) [Compound I-1325]
- IC50 [1]: 10 to 100 µM

Compound: COc1ccccc1-c1cc(-c2cccc(C(=O)N(C)C)c2)c(F)c2[nH]c(C(=O)N(C)C)cc12 [Compound I-1583]
- IC50 [1]: 1 to 10 µM

Compound: O=C(CCn1ccnn1)N1CCC=C(c2ccc(-n3ccccc3=O)cc2)C1 [Compound I-1625]
- IC50 [1]: 1 to 10 µM
